≈ marks a conversion by molar mass, not a printed value. Read-outs that look alike come from different tables or passages of the source.
Experiments:
[1] = test system: MSSA; assay: antibacterial activity (MIC) by agar plate dilution method, MSSA strains; assay type: cell-based, Methicillin-sensitive Staphylooccus aureus; settings: Staphylococcus aureus, 20 h, MSSA (7 strains); for MIC50: read-out: MIC50; for MIC: MSSA, range over strains, read-out: MIC
Procedure: (§1) The screening of the present invention may be carried out according to the agar plate dilution method designated by the Japan Society of Chemotherapy (Chemotherapy 29(1), 76-79 (1981)). Mueller-Hinton agar base semi-synthetic medium may be used for a plate culture medium for a sensitivity test together with an inoculating bacteria solution which may be prepared by culturing bacteria to be tested at 37° C. for 20 hours diluted with 8.5% by isotonic sodium chloride solution to 10^6 CFU/ml. Diluted β-lactam solutions are prepared by two times serial dilution. 1 ml of the diluted β-lactam solution and 1 ml of a predetermined concentration of a sample to be tested are added to 8 ml of the plate culture medium for a sensitivity test. To the resultant plate culture medium for sensitivity test, the bacteria are inoculated using a microplanter (SAKUMASEISAKUSYO Co.), cultured for 20 hours at 37° C. followed by assessing for a minimum inhibition concentration (MIC).
(§2) (A) Antibacterial activities of ether extract from Scutellaria barbata, SB-1 (isolated from Scutellaria barbata), apigenin (authentic sample) and luteolin (authentic sample) were shown in Table 1.
(§3) Flavones were dissolved in methanol and the others were dissolved in 0.1 N NaOH. A method for determination of antibacterial activity is, as described above, an agar plate dilution method designated by the Japan Society of Chemotherapy (Chemotherapy 29(1), 76-79 (1981)) to determine MIC value. MIC80 is a concentration at which a strain is prohibited to proliferate by 80% and MIC50 is a concentration at which a strain is prohibited to proliferate by 50%.

[2] = test system: MRSA; assay: antibacterial activity (MIC) by agar plate dilution method, MRSA strains; assay type: cell-based, methicillin-resistant Staphylococcus aureus; settings: Staphylococcus aureus, 20 h, MRSA (20 strains); for MIC50: read-out: MIC50; for MIC: MRSA, range over strains, read-out: MIC
Procedure: as §1, §2, §3

[3] = test system: MRSA; assay: antibacterial activity of antibiotics alone and in the presence of apigenin (4 μg/ml), MRSA; assay type: cell-based, methicillin-resistant Staphylococcus aureus; settings: for MIC / MIC50: Staphylococcus aureus, MRSA, 20 h
Procedure: as §1
(D) Then use of 4 μg/ml of apigenin and other antibiotics at the same time was studied. The antibiotics are penicillin , ampicillin, cephalothin, cefoxitin, cefuroxime, cefotaxime, vancomycin, streptomycin, chloramphenicol, kanamycin, erythromycin, nalixic acid and tetracycline.

[4] = test system: MRSA No. 5; assay: effect of flavone on antibacterial activity of antibiotics against MRSA No. 5 in bouillon (broth microdilution); assay type: cell-based, methicillin-resistant Staphylococcus aureus; settings: for MIC: Staphylococcus aureus, MRSA, 20 h; for inhibitory effect on resistance of MRSA No.5 (in words): in the presence of flavone 0.5 mM
Procedure: Alternatively, the screening of the present invention may be carried out according to the broth microdilution method designated by the Japan Society of Chemotherapy (Chemotherapy 38(1), 102-105 (1990)). Muellar-Hinton broth is used as a culture medium for the sensitivity test, and 50 mg/ml of calcium(Ca) ion, 25 mg/ml of magnesium(Mg) ion, and 2% sodium chloride (NaCl) are added thereto. An inoculating bacteria solution may be prepared by culturing bacteria to be tested in Mueller-Hinton broth at 37° C. for 20 hours and diluting with Mueller-Hinton broth to 10^5 CFU/ml final concentration of inoculating bacteria. Diluted β-lactam solution is prepared by two times serial dilution series. 10 μl of the diluted β-lactam solution and 10 μl of a predetermined concentration of a sample of bacteria to be tested are added to mix with 80 μl of the culture medium for the sensitivity test. To the resultant plate culture medium for sensitivity test, the inoculating bacteria are added and culturing is carried out for 20 hours at 37° C. and then assessment for a minimum inhibition concentration (MIC) is carried out. A minimum inhibition concentration means the minimum concentration of β-lactam at which growth of bacteria is not recognized by the naked eye.
(G) Antibacterial activity of 6 β-lactams, that is, cephalothin, cefuroxime, cefotaxime, cefoxitin, streptomycin and vancomycin, against MRSA in the presence of 0.5 mM flavone was studied in bouillon.
Muellar-Hinton broth was used as a culture medium for the sensitivity test, and 50 mg/ml of calcium (Ca) ion, 25 mg/ml of maqnesium (Mg) ion, 2% sodium chloride (NaCl) were added thereto. An inoculating bacteria solution was prepared by culturing bacteria to be tested with Mueller-Hinton broth at 37° C. for 20 hours and diluting with Mueller-Hinton broth to 10^5 CFU/ml final concentration of inoculating bacteria. Diluted β-lactam solutions were prepared in two times serial dilutions starting from 10 mM. Ten microliters of the diluted β-lactam solution and 10 μl of 5 mM of flavone were mixed with 80 μl of the culture medium for the sensitivity test in a microplate having U-shaped wells and samples of bacteria to be tested were added thereto. The mixture was cultured 20 hours at 37° C. and then assessed for minimum inhibition concentration (MIC). Minimum inhibition concentration means minimum concentration of a β-lactum at which growth of bacteria is inhibited to the extent that bacteria is not recognized by the naked eye.

[5] = Antibiotics alone, read-out: MIC50
[6] = antibiotic with Apigenin (4 μg/ml), read-out: MIC
[7] = antibiotic with Apigenin (4 μg/ml), read-out: MIC50
[8] = Concentration of flavone 0 mM, read-out: MIC
[9] = Concentration of flavone 0.5 mM, read-out: MIC
[10] = antibiotic with Apigenin (4 μg/ml)

MIC50 [1]	MIC [1]	MIC50 [2]	MIC [2]	MIC50 [3, 5]	MIC50 [3, 7]	SMILES	inhibitory effect on resistance of MRSA No.5 (in words) [4]	further results
> 250 µg/mL	> 250 µg/mL	> 250 µg/mL	> 250 µg/mL	–	–	Oc1cc(O)c2c(c1)O[C@H](c1ccc(O)c(O)c1)[C@@H](O)C2 [(+)-Catechin, (+)-catechin]	–	–
> 250 µg/mL	> 250 µg/mL	> 250 µg/mL	> 250 µg/mL	–	–	COc1ccc(-c2cc(=O)c3c(O)cc(O)cc3o2)cc1 [Acacetin, acacetin]	–	–
–	–	–	–	31.3 µg/mL	31.3 µg/mL	CC1(C)S[C@@H]2[C@H](NC(=O)[C@H](N)c3ccccc3)C(=O)N2[C@H]1C(=O)O [Ampicillin, ampicillin]	–	MIC ([3]; Antibiotics alone, read-out: MIC): 2 to 125 µg/mL; MIC [3, 6]: 2 to 62.5 µg/mL
> 250 µg/mL	> 250 µg/mL	> 250 µg/mL	> 250 µg/mL	–	–	O=c1cc(-c2ccccc2)oc2cc(O)c(O)c(O)c12 [Baicalein, baicalein]	–	–
–	–	–	–	> 250 µg/mL	> 250 µg/mL	CO/N=C(\C(=O)N[C@@H]1C(=O)N2C(C(=O)O)=C(COC(C)=O)CS[C@H]12)c1csc(N)n1 [Cefotaxime, cefotaxime]	showed inhibitory effect on resistance of MRSA No.5	MIC [4, 8]: 1000 µM (≈ 455 µg/mL); MIC [4, 9]: 7.8 µM (≈ 3.55 µg/mL)
–	–	–	–	250 µg/mL	31.3 µg/mL	CO[C@@]1(NC(=O)Cc2cccs2)C(=O)N2C(C(=O)O)=C(COC(N)=O)CS[C@@H]21 [Cefoxitin, cefoxitin]	showed the inhibitory effect remarkably	MIC [4, 8]: 1000 µM (≈ 427 µg/mL); MIC [4, 9]: < 0.98 µM; MIC [3, 6]: 2 to 125 µg/mL; inhibition of β-lactam resistant MRSA / improvement of antibacterial effect with apigenin (in words) ([3]; apigenin 4 μg/ml or less than its MIC): inhibited β-lactam resistant MRSA
–	–	–	–	> 250 µg/mL	> 250 µg/mL	CO/N=C(\C(=O)N[C@@H]1C(=O)N2C(C(=O)O)=C(COC(N)=O)CS[C@H]12)c1ccco1 [Cefuroxime, cefuroxime]	showed inhibitory effect on resistance of MRSA No.5	MIC [4, 8]: > 1000 µM; MIC [4, 9]: 7.8 µM (≈ 3.31 µg/mL)
–	–	–	–	–	–	CC(=O)OCC1=C(C(=O)O)N2C(=O)[C@@H](NC(=O)Cc3cccs3)[C@H]2SC1 [Cephalothin, cephalothin]	showed inhibitory effect on resistance of MRSA No.5	MIC ([4]; Concentration of flavone 0 mM): 500 µM (≈ 198 µg/mL); MIC ([4]; Concentration of flavone 0.5 mM): 1.95 µM (≈ 0.773 µg/mL); MIC ([3]; Antibiotics alone): 0.98 to 250 µg/mL; MIC50 ([3]; Antibiotics alone): 125 µg/mL; MIC [3, 10]: 0.98 to 250 µg/mL; MIC50 [3, 10]: 125 µg/mL
–	–	–	–	–	–	O=C(N[C@H](CO)[C@H](O)c1ccc([N+](=O)[O-])cc1)C(Cl)Cl [Chloramphenicol, chloramphenicol]	–	MIC ([3]; Antibiotics alone): 2 to 62.5 µg/mL; MIC50 ([3]; Antibiotics alone): 7.8 µg/mL; MIC [3, 10]: 3.9 to 31.3 µg/mL; MIC50 [3, 10]: 7.8 µg/mL
> 250 µg/mL	> 250 µg/mL	> 250 µg/mL	> 250 µg/mL	–	–	O=c1cc(-c2ccccc2)oc2cc(O)cc(O)c12 [Chrysin, chrysin]	–	–
> 250 µg/mL	> 250 µg/mL	> 250 µg/mL	> 250 µg/mL	–	–	O=c1c(-c2ccc(O)cc2)coc2cc(O)ccc12 [Daidzein, daidzein]	–	–
–	–	–	–	–	–	CC[C@H]1OC(=O)[C@H](C)[C@@H](O[C@H]2C[C@@](C)(OC)[C@@H](O)[C@H](C)O2)[C@H](C)[C@@H](O[C@@H]2O[C@H](C)C[C@H](N(C)C)[C@H]2O)[C@](C)(O)C[C@@H](C)C(=O)[C@H](C)[C@@H](O)[C@]1(C)O [Erythromycin, erythromycin]	–	MIC50 ([3]; Antibiotics alone): > 250 µg/mL; MIC50 [3, 10]: > 250 µg/mL
> 250 µg/mL	> 250 µg/mL	> 250 µg/mL	> 250 µg/mL	–	–	COc1ccc(-c2coc3cc(O)ccc3c2=O)cc1 [Formononetin, formononetin]	–	–
